Measured values from PubChem BioAssay (NCI).
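Test compounds were applied to cells in 96-well plates for 48 hours at 5 doses. The concentration for 50% growth inhibition is given as GI50. The concentration for full growth arrest is given as TGI.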

Columns and labels:
Assay in all cases: NCI tumour cell line growth inhibition, 48 h
SNB-19 CNS = test system: SNB-19 CNS
NCI-H23 lung = test system: NCI-H23 lung
HCT-116 colon = test system: HCT-116 colon
OVCAR-3 ovarian = test system: OVCAR-3 ovarian
SR leukemia = test system: SR leukemia
UO-31 renal = test system: UO-31 renal
OVCAR-5 ovarian = test system: OVCAR-5 ovarian
HS 578T breast = test system: HS 578T breast
NCI-H460 lung = test system: NCI-H460 lung
HOP-92 NSCLC = test system: HOP-92 NSCLC
RXF 393 renal = test system: RXF 393 renal
NCI-H226 lung = test system: NCI-H226 lung
A549 NSCLC = test system: A549 NSCLC
DU-145 prostate = test system: DU-145 prostate
T-47D breast = test system: T-47D breast
A498 renal = test system: A498 renal
MDA-MB-231 breast = test system: MDA-MB-231 breast
NCI/ADR-RES ovarian = test system: NCI/ADR-RES ovarian
HCC-2998 colon = test system: HCC-2998 colon
LOX IMVI melanoma = test system: LOX IMVI melanoma
K-562 leukemia = test system: K-562 leukemia
SN12C renal = test system: SN12C renal
HCT-15 colon = test system: HCT-15 colon
IGROV1 ovarian = test system: IGROV1 ovarian
SF-539 CNS = test system: SF-539 CNS
SK-MEL-2 melanoma = test system: SK-MEL-2 melanoma
HL-60(TB) leukemia = test system: HL-60(TB) leukemia
NCI-H522 lung = test system: NCI-H522 lung
TK-10 renal = test system: TK-10 renal
OVCAR-8 ovarian = test system: OVCAR-8 ovarian
MDA-MB-468 breast = test system: MDA-MB-468 breast
EKVX NSCLC = test system: EKVX NSCLC
SK-MEL-5 melanoma = test system: SK-MEL-5 melanoma
OVCAR-4 ovarian = test system: OVCAR-4 ovarian
KM12 colon = test system: KM12 colon
HT29 colon = test system: HT29 colon
UACC-62 melanoma = test system: UACC-62 melanoma
MCF7 breast = test system: MCF7 breast
SK-MEL-28 melanoma = test system: SK-MEL-28 melanoma
SK-OV-3 ovarian = test system: SK-OV-3 ovarian
UACC-257 melanoma = test system: UACC-257 melanoma
MOLT-4 leukemia = test system: MOLT-4 leukemia
SW-620 colon = test system: SW-620 colon
PC-3 prostate = test system: PC-3 prostate
M14 melanoma = test system: M14 melanoma
MDA-MB-435 = test system: MDA-MB-435
SNB-75 CNS = test system: SNB-75 CNS
HOP-62 NSCLC = test system: HOP-62 NSCLC
CCRF-CEM leukemia = test system: CCRF-CEM leukemia
MALME-3M melanoma = test system: MALME-3M melanoma
COLO 205 colon = test system: COLO 205 colon
CAKI-1 renal = test system: CAKI-1 renal
SF-268 CNS = test system: SF-268 CNS
RPMI-8226 leukemia = test system: RPMI-8226 leukemia
786-0 renal = test system: 786-0 renal
BT-549 breast = test system: BT-549 breast
U251 CNS = test system: U251 CNS
SF-295 CNS = test system: SF-295 CNS
ACHN renal = test system: ACHN renal

Molecule Cn1cc(-c2cc(N)n3nc(-c4c[nH]c5ccccc45)cc3n2)c2ccccc21 has a GI50 (SNB-19 CNS) of 3.14 µM, a TGI (SNB-19 CNS) of 11.4 µM and a GI50 (NCI-H23 lung) of 2360 nM. The TGI (NCI-H23 lung) was 5.83 µM, the GI50 (HCT-116 colon) was 1900 nM and the TGI (HCT-116 colon) was 3.54 µM. The GI50 (OVCAR-3 ovarian) was 2100 nM, the TGI (OVCAR-3 ovarian) was 4.59 µM and the GI50 (SR leukemia) was 2010 nM. For the same molecule, the TGI (SR leukemia) was 39 µM, the GI50 (UO-31 renal) was 1640 nM and the TGI (UO-31 renal) was 3.28 µM. The GI50 (OVCAR-5 ovarian) was 2050 nM, the TGI (OVCAR-5 ovarian) was 4.64 µM and the GI50 (HS 578T breast) was 5.53 µM. It also gave a TGI (HS 578T breast) of 45.4 µM, a GI50 (NCI-H460 lung) of 1950 nM and a TGI (NCI-H460 lung) of 3.83 µM. For the same molecule, the GI50 (HOP-92 NSCLC) was 2290 nM, the TGI (HOP-92 NSCLC) was 5.47 µM and the GI50 (RXF 393 renal) was 1690 nM. For the same molecule, the TGI (RXF 393 renal) was 3.96 µM, the GI50 (NCI-H226 lung) was 11.4 µM and the TGI (NCI-H226 lung) was 37.2 µM. For the same molecule, the GI50 (A549 NSCLC) was 3.01 µM, the TGI (A549 NSCLC) was 12 µM and the GI50 (DU-145 prostate) was 3.61 µM. It also gave a TGI (DU-145 prostate) of 13.5 µM, a GI50 (T-47D breast) of 2020 nM and a TGI (T-47D breast) of 4.58 µM. The GI50 (A498 renal) was 7.63 µM, the TGI (A498 renal) was 20.8 µM and the GI50 (MDA-MB-231 breast) was 1900 nM. For the same molecule, the TGI (MDA-MB-231 breast) was 3.47 µM, the GI50 (NCI/ADR-RES ovarian) was 2650 nM and the TGI (NCI/ADR-RES ovarian) was 7.75 µM. It also gave a GI50 (HCC-2998 colon) of 1790 nM, a TGI (HCC-2998 colon) of 3.34 µM and a GI50 (LOX IMVI melanoma) of 1810 nM. For the same molecule, the TGI (LOX IMVI melanoma) was 3.25 µM, the GI50 (K-562 leukemia) was 2340 nM and the TGI (K-562 leukemia) was 6.81 µM. The GI50 (SN12C renal) was 3.47 µM, the TGI (SN12C renal) was 12.4 µM and the GI50 (HCT-15 colon) was 1640 nM. It also gave a TGI (HCT-15 colon) of 3.3 µM, a GI50 (IGROV1 ovarian) of 2640 nM and a TGI (IGROV1 ovarian) of 6.84 µM. It also gave a GI50 (SF-539 CNS) of 1810 nM, a TGI (SF-539 CNS) of 3.21 µM and a GI50 (SK-MEL-2 melanoma) of 4.72 µM. For the same molecule, the TGI (SK-MEL-2 melanoma) was 17.2 µM, the GI50 (HL-60(TB) leukemia) was 1990 nM and the TGI (HL-60(TB) leukemia) was 5.08 µM. For the same molecule, the GI50 (NCI-H522 lung) was 1690 nM, the TGI (NCI-H522 lung) was 3.33 µM and the GI50 (TK-10 renal) was 2150 nM. The TGI (TK-10 renal) was 7.17 µM, the GI50 (OVCAR-8 ovarian) was 2660 nM and the TGI (OVCAR-8 ovarian) was 8.25 µM. It also gave a GI50 (MDA-MB-468 breast) of 1630 nM, a TGI (MDA-MB-468 breast) of 3.11 µM and a GI50 (EKVX NSCLC) of 2480 nM. It also gave a TGI (EKVX NSCLC) of 7.15 µM, a GI50 (SK-MEL-5 melanoma) of 1770 nM and a TGI (SK-MEL-5 melanoma) of 3.43 µM. For the same molecule, the GI50 (OVCAR-4 ovarian) was 3.26 µM, the TGI (OVCAR-4 ovarian) was 14.7 µM and the GI50 (KM12 colon) was 1940 nM. It also gave a TGI (KM12 colon) of 3.99 µM, a GI50 (HT29 colon) of 1690 nM and a TGI (HT29 colon) of 3.23 µM. For the same molecule, the GI50 (UACC-62 melanoma) was 1740 nM, the TGI (UACC-62 melanoma) was 3.17 µM and the GI50 (MCF7 breast) was 1810 nM. For the same molecule, the TGI (MCF7 breast) was 3.78 µM, the GI50 (SK-MEL-28 melanoma) was 1660 nM and the TGI (SK-MEL-28 melanoma) was 3.03 µM. The GI50 (SK-OV-3 ovarian) was 11.8 µM, the TGI (SK-OV-3 ovarian) was 25.6 µM and the GI50 (UACC-257 melanoma) was 1840 nM. The TGI (UACC-257 melanoma) was 3.45 µM, the GI50 (MOLT-4 leukemia) was 2500 nM and the TGI (MOLT-4 leukemia) was 8.28 µM. The GI50 (SW-620 colon) was 1770 nM, the TGI (SW-620 colon) was 3.45 µM and the GI50 (PC-3 prostate) was 3.38 µM. The TGI (PC-3 prostate) was 14.4 µM, the GI50 (M14 melanoma) was 1790 nM and the TGI (M14 melanoma) was 3.66 µM. It also gave a GI50 (MDA-MB-435) of 1920 nM, a TGI (MDA-MB-435) of 3.92 µM and a GI50 (SNB-75 CNS) of 7.65 µM. It also gave a TGI (SNB-75 CNS) of 21.3 µM, a GI50 (HOP-62 NSCLC) of 3.09 µM and a TGI (HOP-62 NSCLC) of 10.5 µM. It also gave a GI50 (CCRF-CEM leukemia) of 2770 nM, a TGI (CCRF-CEM leukemia) of 24 µM and a GI50 (MALME-3M melanoma) of 1560 nM. For the same molecule, the TGI (MALME-3M melanoma) was 2900 nM, the GI50 (COLO 205 colon) was 1720 nM and the TGI (COLO 205 colon) was 3.35 µM. The GI50 (CAKI-1 renal) was 1910 nM, the TGI (CAKI-1 renal) was 4.48 µM and the GI50 (SF-268 CNS) was 4.25 µM. For the same molecule, the TGI (SF-268 CNS) was 20.6 µM, the GI50 (RPMI-8226 leukemia) was 2510 nM and the TGI (RPMI-8226 leukemia) was 6.95 µM. For the same molecule, the GI50 (786-0 renal) was 1680 nM, the TGI (786-0 renal) was 3.26 µM and the GI50 (BT-549 breast) was 14.8 µM. For the same molecule, the TGI (BT-549 breast) was 29.8 µM, the GI50 (U251 CNS) was 2040 nM and the TGI (U251 CNS) was 4.04 µM. For the same molecule, the GI50 (SF-295 CNS) was 1780 nM, the TGI (SF-295 CNS) was 3.4 µM and the GI50 (ACHN renal) was 2220 nM. For the same molecule, the TGI (ACHN renal) was 4.85 µM.
